Assay results: PubChem BioAssay AID1500 (NMMLSC, 2009)
Activity calls are given as the source filed them.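 How the source made its calls: active means compounds cutting labeled signal peptide binding to staph cells by half or more; inactive means the rest.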

Test system: S. aureus cells, FITC-AIP binding, flow cytometry
Test: inhibitors of FITC-AIP binding to S. aureus, late-stage follow-up, mechanism study for S. aureus quorum sensing inhibitors, strains RN6390, NM300, flow cytometry (AID 1500)
Details: stronger effect = higher value

Q: `CC1CCCN(C(C(=O)Nc2ccc3c(c2)OCO3)c2ccccc2)C1` (stereo unspecified) was tested. Which inhibition (at 12 µM) did it give?
A: 20% (inactive)

Q: `CC1CCCN(C(C(=O)Nc2ccc3c(c2)OCCO3)c2ccccc2)C1` (stereo unspecified) was tested. Which inhibition (at 12 µM) did it give?
A: 26% (inactive)

Q: For `CCc1oc2ccccc2c1C(=O)c1cc(Br)c(O)c(Br)c1`, which inhibition (at 6 µM) is on record?
A: 65%

Q: What about the inhibition (strain RN6390, at 6 µM) of the same molecule?
A: 69%

Q: Which inhibition (at 30 µM) does the source give for `Cc1c(Cl)cccc1Nc1ccccc1C(=O)O` here?
A: 67%

Q: What about the inhibition (strain RN6390, at 30 µM) of the same molecule?
A: 60%
